Data taken from article PMC3568144, “Pseudomonas aeruginosa PA1006 Is a Persulfide-Modified Protein That Is Critical for Molybdenum Homeostasis” (PLoS ONE, 2013).

Assays:
[1] = biological target: T1, His6-PA3667/CsdA (Pseudomonas aeruginosa, UniProt Q9HXX3); experiment: […] transfer to the enzyme, non-reducing SDS-PAGE with phosphorimaging; assay type: biochemical; details: labelled compound; 50 µM 35S Cys, 2 µM enzyme, pH 7.5, 37°C, 10 min
T1 construct: gene csd; full length, His6 tag kept, pET24D, E. coli BL21pLysS, Ni-NTA and MonoQ; dimer (~100 kDa) by gel filtration
T1 sequence (Q9HXX3 1-401): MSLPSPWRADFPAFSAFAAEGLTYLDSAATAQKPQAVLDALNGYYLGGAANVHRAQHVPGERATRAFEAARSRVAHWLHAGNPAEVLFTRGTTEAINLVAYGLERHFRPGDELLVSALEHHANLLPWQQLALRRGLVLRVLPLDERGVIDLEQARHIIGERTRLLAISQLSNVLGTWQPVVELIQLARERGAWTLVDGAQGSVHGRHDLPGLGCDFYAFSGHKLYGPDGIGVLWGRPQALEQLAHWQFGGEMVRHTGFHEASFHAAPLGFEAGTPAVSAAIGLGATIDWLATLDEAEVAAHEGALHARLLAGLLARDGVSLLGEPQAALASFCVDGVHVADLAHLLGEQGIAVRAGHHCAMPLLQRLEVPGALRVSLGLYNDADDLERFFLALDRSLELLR

[2] = biological target: T1, His6-PA3667/CsdA; experiment: absorption spectrum of purified enzyme (~[…] nm band, reducible with sodium borohydride); assay type: binding; details: 100 µM cofactor in purification and storage buffers
[3] = biological target: the molecule itself; experiment: SEC; analytical gel filtration, Superose 6 column (GE Life Sciences), FPLC

N[C@@H](CS)C(=O)O [Cys]
35S transfer to the enzyme, non-reducing SDS-PAGE with phosphorimaging [1]: PA3667/CsdA displayed Cys desulfurase activity and was capable of transferring

Cc1ncc(COP(=O)(O)O)c(C=O)c1O [pyridoxal phosphate]
absorption spectrum of purified enzyme (~400 nm band, reducible with sodium boro) [2]: absorbance spectrum of His6-PA3667/CsdA indicated that it contained a pyridoxal phosphate cofactor

B1: His6-PA3667/CsdA purified from E. coli (enzyme, Pseudomonas aeruginosa, UniProt Q9HXX3 1-401, looked up)
chain: T1 sequence (Q9HXX3 1-401)
notes: PA3667/CsdA, cysteine desulfurase, Pseudomonas aeruginosa; Contains a pyridoxal phosphate cofactor; 100 µM pyridoxal phosphate was added to the buffers; source: E. coli BL21pLysS (pET24D), purified (Ni2+-NTA agarose, MonoQ)
stoichiometry N [3]: 2
